Results published in patent US10941143B2, “Imidazo [1,5-a]pyridine compounds and their use” (Alterity Therapeutics Limited, priority 2019, dated 2021).

Each compound was assayed on human neuroblastoma line BE(2)-M17 (M17) cells (assay: Measurement of Fe efflux from cells). Conditions: M17 cells pre-loaded with 57Fe, compound 20 μM for 2 h, percentage increase of Fe in media relative to media without compound, read-out: % Fe Efflux Range.
Format: cell-based
Experimental: Method I: Measurement of Fe Efflux from Cells
Compounds of the current invention were assessed for their ability to efflux iron (Fe) from a cell using the following protocol.
The human neuroblastoma line BE(2)-M17 (M17) cell cultures were acquired from Sigma Aldrich (Catalogue #: 95011816). M17 Cells were maintained in Opti-MEM reduced serum media supplemented with 10% fetal bovine serum (Bovogen, SFBSF) and passaged twice weekly. Cells were cultured at 37° C. in the presence of 5% CO2. Culture supplies were sourced from Thermo Fisher unless otherwise stated.
A solution of ^57Fe cold isotope was prepared by dissolving ^57Fe metal (>95% enrichment, Trace Sciences International) in concentrated HCl to give a final concentration of 573 mM. From this master solution, a 10 mM working solution was prepared in sterile water. The working solution was used within two months of preparation.
M17 cells were loaded with iron initially by seeding into 48-well plates at a density of 0.15×10^6 cells per well in 0.5 mL media. After 48 h, old media was discarded. Fresh media was supplemented with 20 μM ^57Fe isotope, from the 10 mM ^57Fe working solution. Cells received 0.2 mL of this ^57Fe enriched media and were returned to the incubator for 20 h. The ability of experimental compounds to efflux iron was determined by the dissolution of compounds in DMSO and diluted in Hanks' Balanced Salt Solution (HBSS) for treatment of M17 cells. After ^57Fe incubation, cells were rinsed twice with HBSS and treated with 0.15 mL trial compound for 2 h at a concentration of 20 μM. All assays included a relevant vehicle (0.4%-0.8% DMSO) as well as a positive control (20 μM). Following the treatment period, 0.1 mL of media was collected from cells and the extracellular ^57Fe content was analysed via inductively coupled mass spectrometry (ICP-MS, Agilent 7700x series instrument).
To perform this protocol the following supplies were purchased from Sigma Aldrich: anhydrous dimethyl sulfoxide (DMSO, Catalogue #: 276855), Hanks' Balanced Salt Solution supplemented with 20 mM HEPES and 4.2 mM Sodium Bicarbonate (HBSS, pH: 7.4, Catalogue #: H1387).
After 2 h the Fe levels in the media were measured and the increase determined as a percentage increase relative to the cell media in the absence of the compound.

Row | SMILES | activation at 20 µM [%]
1 | COc1cccnc1-c1nc(-c2ccccc2O)n2ccccc12 [Compound 3, 2-(1-(3-Methoxypyridin-2-yl)imidazo[1,5-a]pyridin-3-yl)phenol] | 30 to 100
2 | Oc1ccccc1-c1nc(-c2ncccc2O)c2ccccn12 [Compound 4, 2-(3-(2-Hydroxyphenyl)imidazo[1,5-a]pyridin-1-yl)pyridin-3-ol] | > 150
3 | Oc1ccc(Br)cc1-c1nc(-c2ccccc2)n2ccccc12 [Compound 6] | < 30
4 | Oc1ccccc1-c1nc(-c2cc(Cl)cc(Cl)c2O)n2ccccc12 [Compound 7] | < 30
5 | Oc1ccccc1-c1nc(-c2cccc(F)c2O)n2ccccc12 [Compound 10, 2-Fluoro-6-(1-(2-hydroxyphenyl)imidazo[1,5-a]pyridin-3-yl)phenol] | 30 to 100
6 | N#Cc1ccccc1-c1nc(-c2ccccc2O)c2ccccn12 [Compound 16, 2-(1-(2-Hydroxyphenyl)imidazo[1,5-a]pyridin-3-yl)benzonitrile] | < 30
7 | Cc1ccc(O)c(-c2nc(-c3ccccc3O)c3ccccn23)c1 [Compound 17] | < 30
8 | Oc1ccccc1-c1nc(-c2c(O)cccc2F)n2ccccc12 [Compound 18, 3-Fluoro-2-(1-(2-hydroxyphenyl)imidazo[1,5-a]pyridin-3-yl)phenol] | 30 to 100
9 | COC(=O)c1ccccc1-c1nc(-c2ccccc2O)c2ccccn12 [Compound 20] | < 30
10 | Oc1ccccc1-c1nc(-c2cc(Cl)cc(Cl)c2)n2ccccc12 [Compound 21] | < 30
11 | COC(=O)c1ccc(O)c(-c2nc(-c3ccccc3O)c3ccccn23)c1 [Compound 22, Methyl 4-hydroxy-3-(1-(2-hydroxyphenyl)imidazo[1,5-a]pyridin-3-yl)benzoate] | 30 to 100
12 | Oc1ccccc1-c1nc(-c2cc(F)cc(F)c2O)n2ccccc12 [Compound 23] | < 30
13 | Oc1ccccc1-c1nc(-c2c(Cl)cccc2Cl)n2ccccc12 [Compound 24] | < 30
14 | COC(=O)c1ccc(-c2nc(-c3ccccc3O)c3ccccn23)cc1 [Compound 25] | < 30
15 | Oc1ccccc1-c1nc(-c2cccc(Cl)c2)n2ccccc12 [Compound 27] | < 30
16 | Oc1ccccc1-c1nc(-c2ccc(Cl)cc2)n2ccccc12 [Compound 29] | < 30
17 | Oc1c(F)cccc1-c1nc(-c2cccc(Br)c2O)c2ccccn12 [Compound 31] | < 30
18 | Oc1c(Cl)cccc1-c1nc(-c2cccc(Br)c2O)c2ccccn12 [Compound 32] | 30 to 100
19 | Oc1c(F)cc(F)cc1-c1nc(-c2cccc(Br)c2O)c2ccccn12 [Compound 33] | < 30
20 | Oc1cccc(F)c1-c1nc(-c2cccc(Br)c2O)c2ccccn12 [Compound 34] | 30 to 100
21 | Oc1cccc(Cl)c1-c1nc(-c2cccc(Br)c2O)c2ccccn12 [Compound 35] | < 30

Row | SMILES | activation at 20 µM [%]
22 | Oc1ccccc1-c1nc(-c2cccc(F)c2O)c2ccccn12 [Compound 37] | < 30
23 | Oc1cccc(F)c1-c1nc(-c2cccc(F)c2O)c2ccccn12 [Compound 38] | 30 to 100
24 | Oc1cccc(Cl)c1-c1nc(-c2cccc(F)c2O)c2ccccn12 [Compound 39] | 30 to 100
25 | Oc1c(F)cccc1-c1nc(-c2cccc(F)c2O)n2ccccc12 [Compound 40] | 30 to 100
26 | Oc1c(F)cccc1-c1nc(-c2cccc(Cl)c2O)n2ccccc12 [Compound 41, 2-Chloro-6-(1-(3-fluoro-2-hydroxyphenyl)imidazo[1,5-a]pyridin-3-yl)phenol] | 30 to 100
27 | Oc1ccc(Cl)cc1-c1nc(-c2cccc(F)c2O)c2ccccn12 [Compound 42] | 30 to 100
28 | Oc1cc(F)c(Br)cc1-c1nc(-c2cccc(F)c2O)n2ccccc12 [Compound 44] | 30 to 100
29 | Oc1cc(F)c(Br)cc1-c1nc(-c2c(O)cccc2Cl)n2ccccc12 [Compound 46] | < 30
30 | Oc1cc(F)ccc1-c1nc(-c2c(O)cccc2F)n2ccccc12 [Compound 49] | < 30
31 | Oc1cc(F)ccc1-c1nc(-c2cccc(F)c2O)n2ccccc12 [Compound 50] | 30 to 100
32 | Oc1cc(F)ccc1-c1nc(-c2cc(F)ccc2O)n2ccccc12 [Compound 51] | < 30
33 | COc1cccnc1-c1nc(-c2c(O)cccc2F)n2ccccc12 [Compound 52] | < 30
34 | COc1cccnc1-c1nc(-c2cc(F)ccc2O)n2ccccc12 [Compound 56, 4-Fluoro-2-(1-(3-methoxypyridin-2-yl)imidazo[1,5-a]pyridin-3-yl)phenol] | 30 to 100
35 | COc1cccnc1-c1nc(-c2cc(Cl)cc(Cl)c2O)n2ccccc12 [Compound 59] | < 30
36 | COc1cccnc1-c1nc(-c2cc(C)ccc2O)n2ccccc12 [Compound 61] | 30 to 100
37 | Oc1cc(F)ccc1-c1nc(-c2cccc(Cl)c2O)n2ccccc12 [Compound 63] | < 30
38 | O=[N+]([O-])c1ccccc1-c1nc(-c2ccccc2O)c2ccccn12 [Compound 77] | < 30
39 | Oc1cccnc1-c1nc(-c2c(O)cccc2F)n2ccccc12 [Compound 79] | 100 to 150
40 | Oc1cccnc1-c1nc(-c2c(O)cccc2Cl)n2ccccc12 [Compound 80] | 30 to 100
41 | Oc1cccnc1-c1nc(-c2cccc(F)c2O)n2ccccc12 [Compound 81, 2-(3-(3-Fluoro-2-hydroxyphenyl)imidazo[1,5-a]pyridin-1-yl)pyridin-3-ol] | > 150
42 | Oc1cccnc1-c1nc(-c2cccc(Cl)c2O)n2ccccc12 [Compound 82] | 30 to 100

Row | SMILES | activation at 20 µM [%]
43 | Oc1ccc(F)cc1-c1nc(-c2ncccc2O)c2ccccn12 [Compound 83] | 100 to 150
44 | Oc1cccnc1-c1nc(-c2cc(F)cc(F)c2O)n2ccccc12 [Compound 84, 2-(3-(3,5-Difluoro-2-hydroxyphenyl)imidazo[1,5-a]pyridin-1-yl)pyridin-3-ol] | > 150
45 | Oc1cccnc1-c1nc(-c2cc(Cl)cc(Cl)c2O)n2ccccc12 [Compound 85] | 30 to 100
46 | Cc1ccc(O)c(-c2nc(-c3c(O)cccc3F)n3ccccc23)c1 [Compound 87] | < 30
47 | Oc1ccc(Cl)cc1-c1nc(-c2ncccc2O)c2ccccn12 [Compound 92] | 100 to 150
48 | Oc1cc(Cl)ccc1-c1nc(-c2ncccc2O)c2ccccn12 [Compound 93] | 30 to 100
49 | Cc1ccc(O)c(-c2nc(-c3ncccc3O)c3ccccn23)c1 [Compound 94] | 30 to 100
50 | Oc1ccccc1-c1nc(-c2ncccc2O)n2ccccc12 [Compound 95, 2-(1-(2-Hydroxyphenyl)imidazo[1,5-a]pyridin-3-yl)pyridin-3-ol] | 30 to 100
51 | Oc1cc(C(F)(F)F)ccc1-c1nc(-c2cccc(F)c2O)n2ccccc12 [Compound 98, 2-(3-(3-Fluoro-2-hydroxyphenyl)imidazo[1,5-a]pyridin-1-yl)-5-(trifluoromethyl)phenol] | < 30
52 | COc1ccccc1-c1nc(-c2ccc(Cl)cc2O)n2ccc(C)cc12 [Compound 100, 5-Chloro-2-(1-(2-methoxyphenyl)-7-methylimidazo[1,5-a]pyridin-3-yl)phenol] | < 30
53 | Oc1ccccc1-c1nc(-c2ccccc2O)n2ncccc12 [Compound 102, 2,2′-(Imidazo[1,5-b]pyridazine-5,7-diyl)diphenol] | < 30
54 | Oc1ccccc1-c1nc(-c2cccc(F)c2O)n2ncccc12 [Compound 103] | 30 to 100
55 | Oc1ccccc1-c1nc(-c2cccc(Cl)c2O)n2ncccc12 [Compound 104] | < 30
56 | Oc1ccccc1-c1nc(-c2ccccc2O)n2cccnc12 [Compound 107, 2,2′-(Imidazo[1,5-a]pyrimidine-6,8-diyl)diphenol] | 30 to 100
57 | Cc1cccc(-c2nc(-c3ccccc3O)c3ncccn23)c1O [Compound 108] | < 30
58 | Oc1cnccc1-c1nc(-c2ccccc2O)n2ccccc12 [Compound 110] | > 150
59 | Oc1cnccc1-c1nc(-c2cccc(F)c2O)n2ccccc12 [Compound 111] | 100 to 150
60 | Oc1cnccc1-c1nc(-c2cccc(Cl)c2O)n2ccccc12 [Compound 112] | 100 to 150
61 | Oc1cnccc1-c1nc(-c2cc(F)cc(F)c2O)n2ccccc12 [Compound 114, 4-(3-(3,5-Difluoro-2-hydroxyphenyl)imidazo[1,5-a]pyridin-1-yl)pyridin-3-ol] | 100 to 150
62 | Oc1ccccc1-c1nc(-c2ncccc2O)c2cccnn12 [Compound 120, 2-(7-(2-Hydroxyphenyl)imidazo[1,5-b]pyridazin-5-yl)pyridin-3-ol] | 100 to 150
